Laboratory results from ChEMBL document CHEMBL3046599, “Synthesis and local anaesthetic activities of 2-aminothiazole/thiadiazole analogues of lidocaine” (Med Chem Res, 2012).

Experiments:
Mus musculus = test: Local anaesthetic activity in sc dosed Mus musculus Swiss (mouse) tail assessed as loss of pain reflex measured with in 30 secs; assay type: functional, organism-based
Oryctolagus cuniculus = test: Corneal anaesthetic activity in New Zealand Oryctolagus cuniculus (rabbit) assessed as inhibition of Frey's horse hair-induced blink reflex at 2 % solution relative to lidocaine; assay type: functional
Rattus norvegicus [1] = test: Local anaesthetic activity in Rattus norvegicus Wistar (rat) sciatic nerve block model assessed as time duration of loss of motor activity at 1 % solution measured over 45 min post injection; assay type: functional
Rattus norvegicus [2] = test: Local anaesthetic activity in Rattus norvegicus Wistar (rat) sciatic nerve block model assessed as time duration of loss of motor activity at 2 % solution measured until first sign of motor activity

| Structure (SMILES) | IC50 (Mus musculus) [mM] | inhibition (INH) (Oryctolagus cuniculus) [%] | Time (Rattus norvegicus [1]) [min] | Time (Rattus norvegicus [2]) [min] |
| --- | --- | --- | --- | --- |
| O=C(CN1CCCCC1)Nc1nc(-c2ccc(F)cc2Cl)cs1 | 7.2 | 42.6 | 40 | 160 |
| CCN(CC)CC(=O)Nc1c(C)cccc1C.Cl | 9.2 | – | 65 | 117 |
| COc1ccc(Cc2nnc(NC(=O)CN3CCOCC3)s2)cc1 | 47 | 40.2 | 117 | 63 |
| CCN(CC)CC(=O)Nc1nc(-c2ccc(F)cc2Cl)cs1 | 23 | 44.3 | 25 | 45 |
| CCN(CC)CC(=O)Nc1nnc(Cc2ccc(OC)cc2)s1 | 36 | 54.2 | 77 | 72 |
| COc1ccc(Cc2nnc(NC(=O)CN3CCCCC3)s2)cc1 | 24 | 34.8 | 35 | 160 |
| O=C(CN1CCOCC1)Nc1nc(-c2ccc(F)cc2Cl)cs1 | 32 | 25.6 | 75 | 150 |
| O=C(CN1CCOCC1)Nc1nnc(Cc2ccc(F)cc2)s1 | 12.3 | 72.1 | 25 | 50 |
| O=C(CN1CCCCC1)Nc1nnc(Cc2ccc(F)cc2)s1 | 6.6 | 92.6 | 40 | 180 |
| CCN(CC)CC(=O)Nc1nnc(Cc2ccc(F)cc2)s1 | 17 | 88.3 | 90 | 210 |
